Results on eleven compounds are retold here after ChEMBL document CHEMBL1201862, “PubChem BioAssay data set” (2004).

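Growth conditions: 96-well plates. Treatment: test compound, 48 hours, 5 concentrations. Analysis: linear interpolation between bracketing concentrations; unreached endpoints set to highest concentration. Abbreviation: GI50, concentration required for 50% inhibition of growth.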 Calls of active or inactive are those of the source. No stated cut-off is given here; in the data, active = GI50 up to about 1.1 µM and inactive = higher.

Test in all cases: growth of human tumour cells (NCI), 48 h
Experiment [1] has as its system 786-0.
The subject of experiment [2] is DU-145.
In experiment [3] the test system is HCC 2998.
Experiment [4] has as its system HOP-62.
The test system of experiment [5] is Hs-578T.
For experiment [6], the system named is IGROV-1.
Experiment [7] deals with M14.
In experiment [8] the test system is NCI-H226.
In experiment [9] the test system is NCI/ADR-RES.
The subject of experiment [10] is OVCAR-4.
For experiment [11], the system named is OVCAR-8.
Experiment [12] concerns PC-3.
The test system of experiment [13] is RXF 393.
Experiment [14] relates to SK-MEL-28.
Experiment [15] relates to SK-OV-3.
In experiment [16] the test system is SN12C.
The test system of experiment [17] is SNB-75.
The test system of experiment [18] is TK-10.
Experiment [19] relates to U-251.
The subject of experiment [20] is HL-60.

In the case of `Cc1c(CN2CCOCC2)c(CN2CCOCC2)c(C)n1-c1ccc(Cl)cn1`, the GI50 in experiment [1], in [2], in experiment [3], in [4], in experiment [5] and in experiment [6] was > 100 µM (inactive) in each case. Further, the GI50 in experiment [7], in experiment [8], in experiment [9], in experiment [10], in experiment [11] and in experiment [12] was > 100 µM (inactive) each time. Further, the GI50 in experiment [13], in experiment [14], in experiment [15], in experiment [16], in [17] and in experiment [18] was > 100 µM (inactive) throughout. Further, in experiment [19], the GI50 is > 100 µM (inactive).
With `CCCNC1=Nc2ccccc2NC(C)C1` (stereo not drawn), the GI50 in [1], in experiment [2], in experiment [20], in experiment [4], in [5] and in [6] was > 100 µM (inactive) in each case. The GI50 in experiment [7], in experiment [8], in experiment [9], in experiment [10], in [11] and in experiment [12] was > 100 µM (inactive) throughout. Further, the GI50 in [13] was > 100 µM (inactive); in [14] it was > 100 µM (inactive); in experiment [15], > 100 µM (inactive); in experiment [16], > 100 µM (inactive); in experiment [17], 22.6 µM (inactive); in experiment [18], > 100 µM (inactive). Further, the GI50 in [19] was > 100 µM (inactive).
Consider `O=C(O)CSCCc1ccccc1`, for which the GI50 was > 100 µM (inactive) in [1]; > 100 µM (inactive) in experiment [2]; 0.156 µM (active) in experiment [20]; > 100 µM (inactive) in experiment [4]; > 100 µM (inactive) in experiment [5]; > 100 µM (inactive) in experiment [6]. The GI50 in experiment [7], in experiment [8], in [9], in experiment [10], in experiment [11] and in experiment [12] was > 100 µM (inactive) each time. Moreover, the GI50 in [13], in experiment [14], in [15], in experiment [16], in experiment [17] and in experiment [18] was > 100 µM (inactive) in each case. Moreover, the GI50 in experiment [19] is > 100 µM (inactive).
As for `C(=N\c1nc2cc3sc(/N=C/c4cccs4)nc3cc2s1)/c1cccs1`, the GI50 in experiment [1] is > 100 µM (inactive); in experiment [2], > 100 µM (inactive); in [20], 79.6 µM (inactive); in experiment [4] it was > 100 µM (inactive); in experiment [5], > 100 µM (inactive); in experiment [6], > 100 µM (inactive). In addition, the GI50 was > 100 µM (inactive) in experiment [7]; 28.4 µM (inactive) in experiment [8]; > 100 µM (inactive) in experiment [9]; > 100 µM (inactive) in experiment [10]; > 100 µM (inactive) in experiment [11]; > 100 µM (inactive) in experiment [12]. Moreover, the GI50 in [13] is > 100 µM (inactive); in experiment [14], > 100 µM (inactive); in [15] it was > 100 µM (inactive); in experiment [16] it was 72.9 µM (inactive); in experiment [17], > 100 µM (inactive); in experiment [18], 26.2 µM (inactive). The GI50 in experiment [19] is > 100 µM (inactive).
Consider `N#C[C@@H](c1ccccn1)c1ncccc1[N+](=O)[O-]`, for which the GI50 in experiment [1], in experiment [2], in experiment [3], in [4], in [5] and in experiment [6] was > 100 µM (inactive) throughout. Moreover, the GI50 in experiment [7], in experiment [9], in experiment [10], in [11], in [12] and in experiment [13] was > 100 µM (inactive) each time. Further, the GI50 in [14], in experiment [15], in [16], in experiment [17] and in experiment [19] was > 100 µM (inactive) in each case.
On to `O=C1CCC(N2C(=O)c3ccccc3C2=O)C(=O)N1` (stereo not drawn) [THALIDOMIDE], for which the GI50 in [1], in [2], in experiment [3], in [4], in experiment [5] and in [6] was > 100 µM (inactive) in each case. Also, the GI50 in experiment [7], in experiment [9], in experiment [10], in experiment [11], in experiment [12] and in [13] was > 100 µM (inactive) in each case. For the same compound, the GI50 in [15], in [16], in experiment [17] and in experiment [19] was > 100 µM (inactive) in each case.
As for `Nc1ccc(SC23CC4CC(CC(C4)C2)C3)cc1`, the GI50 in [1], in experiment [2], in [3], in experiment [20], in experiment [4] and in experiment [5] was > 100 µM (inactive) each time. The GI50 in experiment [6] is > 100 µM (inactive); in experiment [7], > 100 µM (inactive); in experiment [8] it was < 0.01 µM (active); in experiment [9], > 100 µM (inactive); in experiment [11], > 100 µM (inactive); in [12], > 100 µM (inactive). For the same compound, the GI50 was 27.5 µM (inactive) in experiment [13]; > 100 µM (inactive) in experiment [14]; > 100 µM (inactive) in experiment [15]; > 100 µM (inactive) in [16]; > 100 µM (inactive) in experiment [18]; 78.3 µM (inactive) in experiment [19].
With `CC[C@H]1OC([C@H](O)C/C=C\C#C[Si](C)(C)C)C/C=C\C[C@H]1O[Si](C)(C)C(C)(C)C` (stereo partly drawn), the GI50 in [1], in [2], in experiment [3], in experiment [4], in experiment [5] and in [6] was > 100 µM (inactive) each time. For the same compound, the GI50 in [7], in [8], in experiment [9], in experiment [10], in experiment [11] and in experiment [12] was > 100 µM (inactive) throughout. Besides, the GI50 in experiment [13], in experiment [14], in experiment [15], in [16], in experiment [17] and in [19] was > 100 µM (inactive) throughout.
For the compound `CSc1cc(Cl)c(C)cc1S(=O)(=O)NC(=O)NNc1ccccn1`, the GI50 in experiment [1], in experiment [2], in experiment [3], in experiment [4], in experiment [5] and in experiment [6] was > 100 µM (inactive) each time. For the same compound, the GI50 in experiment [7], in [8], in experiment [9], in experiment [10], in experiment [11] and in experiment [12] was > 100 µM (inactive) throughout. Also, the GI50 is > 100 µM (inactive) in experiment [13]; > 100 µM (inactive) in experiment [14]; > 100 µM (inactive) in experiment [15]; > 100 µM (inactive) in [16]; 5.21 µM (inactive) in experiment [17]; > 100 µM (inactive) in experiment [19].
With `CC#CCCCC1(C)CCCNC1=S` (stereo not drawn), the GI50 in experiment [1], in experiment [2], in experiment [20], in experiment [5], in [6] and in experiment [7] was > 10 µM (inactive) throughout. Further, the GI50 in experiment [9], in experiment [10], in [11], in experiment [12], in experiment [13] and in experiment [15] was > 10 µM (inactive) throughout. Besides, the GI50 in experiment [16], in [17], in [18] and in experiment [19] was > 10 µM (inactive) each time.
For `CCOC(=O)C1C(=O)CC1(C)C` (stereo not drawn), the GI50 in [1], in [2], in [3], in [20], in [4] and in experiment [5] was > 10 µM (inactive) throughout. In addition, the GI50 in [6], in experiment [7], in [8], in [9], in [10] and in experiment [11] was > 10 µM (inactive) throughout. Besides, the GI50 in [12], in experiment [13], in experiment [14], in experiment [15], in experiment [16] and in [18] was > 10 µM (inactive) in each case. Also, the GI50 in experiment [19] was > 10 µM (inactive).
